Consider eight compounds from patent US20190008870A1, “COMPOSITIONS AND METHODS FOR LIPID METABOLISM DISORDER” (JANSFAT BIOTECHNOLOGY CO., LTD., priority 2016, published 2019).

Assay [1] has as its system ROCK II. The assay is described as follows: ROCK II expression in HepG2 cells. Type of assay: cell-based. As to the method: (§1) The HepG2 hepatoma cell line was purchased from the American Type Culture Collection (ATCC, Manassas, Va., U.S.A.). Cells were cultured in Dulbecco's Modified Eagle's Medium (DMEM). […] Then the targeted drugs solution was incubated with the cells for 24 hours, followed by protein extraction. […] HepG2 cells were treated with various concentrations of targeted drugs for 24 hours. Reactions were terminated by washing twice with cold PBS, and the cells were then harvested. Proteins in the whole-cell lysate were homogenized in an ice-cold lysis buffer and a protease inhibitor (Sigma-Aldrich, St. Louis, Mo., U.S.A.). The homogenate was centrifuged at 90,000×g for 15 minutes at 4° C., and supernatant was recovered as the total cellular protein. Cytosolic and membrane fractions of HepG2 cells were prepared using a CNM (Cytosol Nuclear Membrane) compartmental protein extraction kit (BioChain Institute Inc., Hayward, Calif., U.S.A.) according to the manufacturer's instructions. All of the fractionated protein solutions were stored at -80° C. until analysis. To measure the expression levels of proteins by drugs, the total cell protein was extracted after incubation with treatments for 24 hours and then Western blotting analysis was performed as described previously.

A further assay deals with eNOS. The assay is described as follows: Expression of eNOS (Table 12). To be noted: Control group 100 (%).
For another assay, the system named is mice fed with HFD. The assay is described as follows: Serum and liver lipid levels of mice fed with HFD. Type of assay: in vivo. To be noted: for HDL chol. / LDL chol. / TG / Tot. chol.: Dose 2.5 mg/kg (Table 2). As to the method:
(§2) During the 2 month experiments, mice fasted for one night before the experiment was changed from a standard diet (STD) to an HFD and then the mice were randomly divided into 13 groups, including a protection group, 2 control and 10 treatment groups. Six mice were used in each group. […] Liver from the protection group supplemented with KMUP-1 HCl (1 mg/kg/day) were used to determine the HMG CoA reductase expression. Each group of mice had free access to drinking water from week 1 to week 14. Tap water was used to normalize mineral nutrition.
Within 2 months, the 3 day food intake average for each animal was measured. The weight gain and plasma lipid levels of each group were determined and compared to the non-treatment control group. […] Agents used in the assays were obtained from Merck & Co. (Kenilworth, N.J., U.S.A.). Triglyceride (TG), total cholesterol, HDL cholesterol and LDL cholesterol in mouse serum were measured by methods used in the clinic. To measure the hepatic Triglyceride, isolated liver were cut into small chips.

Another assay concerns PDE-5A. The assay is described as follows: Expression of PDE-5A (Table 12). Particulars: Control group 100 (%).
Assay [2] deals with ROCK II. The assay is described as follows: Expression of ROCK II (Table 12). To be noted: Control group 100 (%).
Assay [3] can be described thus: Body weight and food intake of mice fed with HFD. It counts as in vivo. Particulars: HFD mice, 5 mg/kg p.o. On the procedure:
as §2, with “In the experiment, C57BL/6J male mice (21-22 g), after fasting, were fed an HFD as a model of hyperlipidemia for 8 weeks. During” for “During”
Within 2 months, the 3 day food intake average for each animal was measured. The weight gain and plasma lipid levels of each group were determined and compared to the non-treatment control group. Mouse blood was collected during the daytime by cardiac puncture followed by centrifugation at 90×g (Benchtop Centrifuge, U.S.A.) to separate the serum, and frozen at −80° C., for biochemical analysis using a Hitachi Clinical Analyzer 7070 (Hitachi High-Technologies Co. Tokyo, Japan). Agents used in the assays were obtained from Merck & Co. (Kenilworth, N.J., U.S.A.). Triglyceride (TG), total cholesterol, HDL cholesterol and LDL cholesterol in mouse serum were measured by methods used in the clinic. To measure the hepatic Triglyceride, isolated liver were cut into small chips.

A further assay concerns PPARγ. The assay is described as follows: PPARγ expression in HepG2 cells. Particulars: HepG2 cells; for PPARγ: Control 100. Type of assay: cell-based. On the procedure: as §1, with “−80°” for “-80°”
In the next assay the test system is ABCA1. The assay is described as follows: ABCA1 expression in HepG2 cells. Type of assay: cell-based. Particulars: HepG2 cells, 10^−5 M, 24 hours; Control 100, Vehicle 110. On the procedure: as §1, with “−80°” for “-80°”
The test system of the next assay is HMG CoA reductase. The assay is described as follows: HMG CoA reductase expression in HepG2 cells (Western blotting). It counts as cell-based. To be noted: for HMGR (%): CTL 100. As to the method:
The HepG2 hepatoma cell line was purchased from the American Type Culture Collection (ATCC, Manassas, Va., U.S.A.). Cells were cultured in Dulbecco's Modified Eagle's Medium (DMEM). The culture media was supplemented with 5% heat-inactivated FBS, penicillin (100 U/mL) and streptomycin (100 μg/mL). Cells were grown in a humidified atmosphere containing 5% CO2 at 37° C., in which the oxygen tension in the incubator was held at 140 mmHg (20% O2, v/v; normoxic conditions). […] Then the targeted drugs solution was incubated with the cells for 24 hours, followed by protein extraction. The targeted drugs were added to the […].
HepG2 cells were treated with various concentrations of targeted drugs for 24 hours. Reactions were terminated by washing twice with cold PBS, and the cells were then harvested. Proteins in the whole-cell lysate were homogenized in an ice-cold lysis buffer and a protease inhibitor (Sigma-Aldrich, St. Louis, Mo., U.S.A.). The homogenate was centrifuged at 90,000×g for 15 minutes at 4° C., and supernatant was recovered as the total cellular protein. Cytosolic and membrane fractions of HepG2 cells were prepared using a CNM (Cytosol Nuclear Membrane) compartmental protein extraction kit (BioChain Institute Inc., Hayward, Calif., U.S.A.) according to the manufacturer's instructions. All of the fractionated protein solutions were stored at −80° C. until analysis. To measure the expression levels of proteins by drugs, the total cell protein was extracted after incubation with treatments for 24 hours and then Western blotting analysis was performed as described previously.
For orientation: In western blotting, separated proteins are transferred to a membrane and probed.

“And” between values parts separate entries of the source, which are not always exact repeats. Identical values can stand only once.

For the compound `Nc1nc2c(nc(Sc3ccc(Cl)cc3)n2[C@@H]2O[C@@H]3CO[P@@](=O)(S)O[C@H]3[C@H]2O)c(=O)[nH]1` [Rp-8-pCPT-cGMPS, 8-(p-chloro-phenylthio)guanosine-3,5-monophosphorothioate, reference compound], the “ROCK II expression” value in the assay on ROCK II [1] (Rp-8-pCPT-cGMPS 10 μM alone, Control 100) was determined as 320.
“KMUP-1-sodium carboxyl methylcellulose [KMUP-1-CMC]” returned an eNOS expression with eNOS of 152.14 ± 6.3%. In the assay on mice fed with HFD, this compound had an HDL chol. of 108.4 ± 1.3 mg/dL, an LDL chol. of 16.4 ± 1.7 mg/dL, a TG of 83.2 ± 5.3 mg/dL and a Tot. chol. of 129.7 ± 1.6 mg/dL. In the assay on PDE-5A, this compound yielded a PDE-5A expression of 58.7 ± 3.5%. In the assay on ROCK II [2], the “ROCK II expression” value is on record as 38.6 ± 2.7%.
In the case of `CCCc1nn(C)c2c(=O)nc(-c3cc(S(=O)(=O)N4CCN(C)CC4)ccc3OCC)[nH]c12` [SIDAF, 5-[2-ethoxy-5-(4-methylpiperazin-1-yl)-sulphonylphenyl]-1-methyl-3-propyl-4H-pyrazolo[4,3-d]pyrimidin-7-one, reference compound], in the assay with mice fed with HFD (5 mg/kg p.o.), the HDL cholesterol turned out to be 103.2 ± 2.5 mg/dL, the LDL cholesterol is 15.3 ± 1.3 mg/dL, the “TG in serum (Triacylglycerol)” value was determined as 82.7 ± 6.3 mg/dL and the TG of liver is on record as 34.5 ± 2.** mg/dl. In the assay with mice fed with HFD (5 mg/kg p.o.), the “Tot. chol. (total cholesterol)” value is 133.7 ± 4.3 mg/dL. Moreover, the “final BW (Body weight)” value in assay [3] was 23.9 ± 0.9 g.
As to `C[C@@H](N)[C@H]1CC[C@H](C(=O)Nc2ccncc2)CC1` [Y27632, reference compound], the “ROCK II expression” value in the assay with ROCK II [1] (10^−5 M, 24 hours, Control 100, Vehicle 88) is given as 52. Also, in the assay with PPARγ (10^−5 M, 24 hours, Control 100, Vehicle 260), the PPARγ expression is on record as 550. In addition, the ABCA1 expression with ABCA1 turned out to be 225.
For the compound `CC(C)=CCC/C(C)=C/CC/C(C)=C/CC/C(C)=C/COP(=O)(O)OP(=O)(O)O` [GGPP, Geranylgeranyl pyrophosphate, reference compound], in the assay on ROCK II [1] (GGPP (10 μM) alone, Control 100), the ROCKII is 150% and 220%. The same compound had a PPARγ in the assay with PPARγ (GGPP (10 μM) alone) of 50%.
Regarding `CC(O)(CCO)CC(=O)O` (stereo not drawn) [Mevalonate], the “HMGR (%)” value with HMG CoA reductase (Mevalonate 20 (μm)) was found to be 110%; in the assay with HMG CoA reductase (Mevalonate 40 (μm)) it was 95%; with HMG CoA reductase (Mevalonate 60 (μm)), 55%; in the assay with HMG CoA reductase (Mevalonate 80 (μm)) it was 48%; in the assay on HMG CoA reductase (Mevalonate 100 (μm)), 13%. The “HMG CoA expression” value in the assay on HMG CoA reductase (Mevalonate (100 μM) alone, Control 100) is reported as 20%.
In the assay with ROCK II [1] (FPP (10 μM) alone, Control 100), `CC(C)=CCC/C(C)=C/CC/C(C)=C/COP(=O)(O)OP(=O)(O)O` [FPP, Farnesyl pyrophosphate, reference compound] had an ROCKII of 118%. For the same compound, in the assay with PPARγ (FPP (10 μM) alone), the PPARγ worked out at 64%.
In the assay with mice fed with HFD, KMUP-1-DL-ascorbic acid [KMUP-1-VC] displayed an HDL chol. of 97.3 ± 1.6 mg/dL, an LDL chol. of 16.5 ± 0.9 mg/dL, a TG of 78.2 ± 3.6 mg/dL and a Tot. chol. of 129.4 ± 1.4 mg/dL. The same compound displayed a PDE-5A expression with PDE-5A of 68.8 ± 5.3%. Besides, in the assay with ROCK II [2], the “ROCK II expression” value is 40.8 ± 3.7%.
